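GI50 marks 50% less growth. TGI: total growth inhibition.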
Assays:
Experiment in all cases: NCI tumour cell line growth inhibition, 384-well format
SF-295 CNS = tested on: SF-295 CNS
PC-3 prostate = tested on: PC-3 prostate
HOP-62 NSCLC = tested on: HOP-62 NSCLC
NCI-H522 lung = tested on: NCI-H522 lung
SK-OV-3 ovarian = tested on: SK-OV-3 ovarian
OVCAR-4 ovarian = tested on: OVCAR-4 ovarian
OVCAR-3 ovarian = tested on: OVCAR-3 ovarian
HCC-2998 colon = tested on: HCC-2998 colon
OVCAR-5 ovarian = tested on: OVCAR-5 ovarian
HOP-92 NSCLC = tested on: HOP-92 NSCLC
U251 glioblastoma = tested on: U251 glioblastoma
NCI-H226 lung = tested on: NCI-H226 lung
MDA-MB-468 breast = tested on: MDA-MB-468 breast
K-562 leukemia = tested on: K-562 leukemia
KM12 colon = tested on: KM12 colon
SK-MEL-28 melanoma = tested on: SK-MEL-28 melanoma
SNB-75 CNS = tested on: SNB-75 CNS
UO-31 renal = tested on: UO-31 renal
NCI-H23 lung = tested on: NCI-H23 lung
RPMI-8226 leukemia = tested on: RPMI-8226 leukemia
SF-268 CNS = tested on: SF-268 CNS
CAKI-1 renal = tested on: CAKI-1 renal
COLO 205 colon = tested on: COLO 205 colon
MDA-MB-231 breast = tested on: MDA-MB-231 breast
NCI-H460 NSCLC = tested on: NCI-H460 NSCLC
SR leukemia = tested on: SR leukemia
A549 NSCLC = tested on: A549 NSCLC
TK-10 renal = tested on: TK-10 renal
BT-549 breast = tested on: BT-549 breast

## C=CC(=O)Nc1cccc(Oc2nc(Nc3ccc(N4CCN(C)CC4)cc3OC)ncc2Cl)c1
SF-295 CNS
  GI50: 1.87 µM
  TGI: 3.45 µM
PC-3 prostate
  GI50: 1.7 µM
  TGI: 3.14 µM
HOP-62 NSCLC
  GI50: 1.8 µM
  TGI: 3.51 µM
NCI-H522 lung
  GI50: 0.257 µM
  TGI: 1.25 µM
SK-OV-3 ovarian
  GI50: 1.04 µM
  TGI: 2.23 µM
OVCAR-4 ovarian
  GI50: 1.54 µM
  TGI: 4.15 µM
OVCAR-3 ovarian
  GI50: 1.25 µM
  TGI: 2.52 µM
HCC-2998 colon
  GI50: 1.57 µM
  TGI: 2.93 µM
OVCAR-5 ovarian
  GI50: 1.55 µM
  TGI: 3.39 µM
HOP-92 NSCLC
  GI50: 1.1 µM
  TGI: 2.34 µM
U251 glioblastoma
  GI50: 1.69 µM
  TGI: 3.09 µM
NCI-H226 lung
  GI50: 1.13 µM
  TGI: 2.52 µM
MDA-MB-468 breast
  GI50: 0.0167 µM
  TGI: 0.0909 µM
K-562 leukemia
  GI50: 1.63 µM
  TGI: 3 µM
KM12 colon
  GI50: 1.7 µM
  TGI: 3.09 µM
SK-MEL-28 melanoma
  GI50: 1.67 µM
  TGI: 3.03 µM
SNB-75 CNS
  GI50: 1.44 µM
  TGI: 2.89 µM
UO-31 renal
  GI50: 1.35 µM
  TGI: 2.66 µM
NCI-H23 lung
  GI50: 1.83 µM
  TGI: 3.86 µM
RPMI-8226 leukemia
  GI50: 1.16 µM
  TGI: 2.38 µM
SF-268 CNS
  GI50: 1.46 µM
  TGI: 2.79 µM
CAKI-1 renal
  GI50: 0.765 µM
  TGI: 2.05 µM
COLO 205 colon
  GI50: 1.72 µM
  TGI: 3.1 µM
MDA-MB-231 breast
  GI50: 1.56 µM
  TGI: 2.95 µM
NCI-H460 NSCLC
  GI50: 1.64 µM
  TGI: 3.02 µM
SR leukemia
  GI50: 1.56 µM
  TGI: 2.89 µM
A549 NSCLC
  GI50: 1.23 µM
  TGI: 2.48 µM
TK-10 renal
  GI50: 0.788 µM
  TGI: 2.06 µM
BT-549 breast
  GI50: 1.3 µM
  TGI: 2.59 µM

Source: PubChem BioAssay (NCI)
